According to patent publication US20260274891A1, “¿ OPIOID RECEPTOR AGONIST AND USE THEREOF” (CHENGDU AODA BIOTECHNOLOGY CO., LTD., priority 2023, published 2026):
Bridge positions count the residues as written; N and C are the ends. Square brackets hold non-standard residues; d marks the D form. Side chains are listed from the residue outwards. Peptide text beside a SMILES is read from it. I, II: the chains in the order shown. * marks the point of attachment. X21 = NCCCC[C@H](NC(=O)[C@H](CCCCN)NC(=O)C1(N)CCN(*)CC1)C(N)=O; X12 = CCOc1ccc(C[C@@H](NC(=O)[C@H](N)Cc2ccccc2)C(=O)*)cc1; Piperidinyl(4-NH2,4-CONH2) = NC(=O)C1(N)CCN(*)CC1; X10 = NCCCC[C@@H](NC(=O)C1(N)CCN(*)CC1)C(=O)O; X4 = NCCCC[C@H](NC(=O)C1(N)CCN(*)CC1)C(=O)O; Api = NC1(C(=O)O)CCNCC1; iPr = CC(C)*

Target: T1, human κ opioid receptor (OPRK1) (Homo sapiens, UniProt P41145)
T1 construct: expressed in transfected cells; host or cells: CHO-K1
Experiment: Determination of activities of κ receptor agonists: inhibition of forskolin-stimulated cAMP release (HTRF) in stably transfected CHO-K1 cells
Type: cell-based
Details: for Relative Activity %: relative to Difelikefalin = 100.0
From the text: Gi-coupled human κ opioid receptor (OPRK1), upon stimulation with its specific opioid receptor agonists, can inhibit the intracellular adenylate cyclase pathway, and decrease cAMP levels. Forskolin can stimulate cAMP release in cell lines highly expressing opioid receptors. By stimulating cell lines stably transfected with opioid receptors, the inhibitory effect of a test compound on forskolin-stimulated cAMP release can be measured to determine the activity of the compound. The relative light units (RLU) from the cells after stimulation with different doses were measured via the homogeneous time-resolved fluorescence technique (HTRF), and the EC50 value of the agonist was subsequently calculated. This activity determination method is a currently commonly used method for determining the activities of opioid receptor agonists at home and abroad.
A CHO-K1 cell line stably expressing opioid receptors was used. Stably transfected cells were stimulated with various concentrations of agonists (under the stimulation of a certain concentration of forskolin). The relative light units from the cells after stimulation with different doses were measured, from which the EC50 value of the agonist was subsequently obtained by calculation.

T1 sequence (P41145 whole entry): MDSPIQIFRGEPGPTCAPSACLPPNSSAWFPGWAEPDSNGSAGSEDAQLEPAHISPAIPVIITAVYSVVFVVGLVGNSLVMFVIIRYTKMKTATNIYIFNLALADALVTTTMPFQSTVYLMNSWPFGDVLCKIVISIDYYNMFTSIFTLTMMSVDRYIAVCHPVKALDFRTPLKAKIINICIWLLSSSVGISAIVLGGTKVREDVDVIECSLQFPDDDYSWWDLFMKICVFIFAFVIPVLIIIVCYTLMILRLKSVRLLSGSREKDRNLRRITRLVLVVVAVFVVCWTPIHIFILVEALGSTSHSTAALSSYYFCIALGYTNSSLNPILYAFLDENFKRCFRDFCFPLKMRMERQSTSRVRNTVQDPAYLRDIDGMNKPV

SMILES	EC50	Relative Activity %
CCOc1ccc(C[C@@H](NC(=O)[C@H](N)Cc2ccccc2)C(=O)N[C@H](CC(C)C)C(=O)N[C@H](CCCCN)C(=O)N2CCC(N)(C(=O)N[C@@H](CCCCN)C(=O)N[C@@H](CCCCN)C(N)=O)CC2)cc1 [Compound 5, D-Phe-D-Tyr(Et)-D-Leu-D-Lys-4-aminopiperidine-4-carboxamide-Lys-Lys-NH2] (H-[dF][dY](Et)[dL][dK]-X21; N-terminus assumed)	0.041 nM	1481.0%
CCOc1ccc(C[C@@H](NC(=O)[C@H](N)Cc2ccccc2)C(=O)N[C@H](CC(C)C)C(=O)N[C@H](CCCCN)C(=O)N2CCC(N)(C(=O)N[C@@H](CCCCN)C(=O)O)CC2)cc1 [Compound 4, D-Phe-D-Tyr(Et)-D-Leu-D-Lys-4-aminopiperidine-4-carboxamide-Lys-OH] (H-[dF][dY](Et)[dL][dK]-X4; N-terminus assumed)	0.0399 nM	1521.8%
CCOc1ccc(C[C@@H](NC(=O)[C@H](N)Cc2ccccc2)C(=O)N[C@H](CC(C)C)C(=O)N[C@H](CCCCN)C(=O)N2CCC(N)(C(=O)N[C@H](CCCCN)C(=O)N[C@H](CCCCN)C(=O)N[C@H](CCCCN)C(=O)N[C@H](CCCCN)C(=O)N[C@H](CCCCN)C(=O)N[C@H](CCCCN)C(N)=O)CC2)cc1 [Compound 25, D-Phe-D-Tyr(Et)-D-Leu-D-Lys-4-aminopiperidine-4-carboxamide-D-Lys-D-Lys-D-Lys-D-Lys -D-Lys-D-Lys-NH2] (H-[Api]([dK-dL-X12])[dK][dK][dK][dK][dK][dK]-NH2; N-terminus assumed)	0.0684 nM	887.7%
CC(C)C[C@@H](NC(=O)[C@@H](Cc1ccc(N)cc1)NC(=O)[C@H](N)Cc1ccccc1)C(=O)N[C@H](CCCCN)C(=O)N1CCC(N)(C(=O)N[C@H](CCCCN)C(N)=O)CC1 [Compound 141, D-Phe-D-Phe(4-NH2)-D-Leu-D-Lys-4-aminopiperidine-4-carboxamide-D-Lys-NH2]	0.112 nM	543.1%
CC(C)C[C@@H](NC(=O)[C@@H](Cc1ccc(C(C)C)cc1)NC(=O)[C@H](N)Cc1ccccc1)C(=O)N[C@H](CCCCN)C(=O)N1CCC(N)(C(=O)N[C@H](CCCCN)C(N)=O)CC1 [Compound 137, D-Phe-D-Phe(4-Ipr)-D-Leu-D-Lys-4-aminopiperidine-4-carboxamide-D-Lys-NH2]	0.143 nM	423.1%
CCOc1ccc(C[C@@H](NC(=O)[C@H](N)Cc2ccccc2)C(=O)N[C@H](CC(C)C)C(=O)N[C@H](CCCCN)C(=O)N2CCC(N)(C(=O)NCC(=O)NCC(=O)NCC(=O)N[C@H](CCCCN)C(=O)O)CC2)cc1 [Compound 58, D-Phe-D-Tyr(Et)-D-Leu-D-Lys-4-aminopiperidine-4-carboxamide-Gly-Gly-Gly-D-Lys-OH] (H-[Api]([dK-dL-X12])GGG[dK]-OH; N-terminus assumed)	0.0515 nM	1179.0%
Cc1ccc(C[C@@H](NC(=O)[C@H](N)Cc2ccccc2)C(=O)N[C@H](CC(C)C)C(=O)N[C@H](CCCCN)C(=O)N2CCC(N)(C(=O)N[C@@H](CCCCN)C(N)=O)CC2)cc1 [Compound 127, D-Phe-D-Phe(4-Me)-D-Leu-D-Lys-4-aminopiperidine-4-carboxamide-Lys-NH2]	0.157 nM	385.8%
CC(C)C[C@@H](NC(=O)[C@@H](Cc1ccc(Br)cc1)NC(=O)[C@H](N)Cc1ccccc1)C(=O)N[C@H](CCCCN)C(=O)N1CCC(N)(C(=O)N[C@@H](CCCCN)C(=O)O)CC1 [Compound 118, D-Phe-D-Phe(4-Br)-D-Leu-D-Lys-4-aminopiperidine-4-carboxamide-Lys-OH]	0.0638 nM	951.7%
CCOc1ccc(C[C@@H](NC(=O)[C@H](N)Cc2ccccc2)C(=O)N[C@H](CC(C)C)C(=O)N[C@H](CCCCN)C(=O)N2CCC(N)(C(=O)N[C@H](CCCCN)C(=O)N[C@H](CCCCN)C(=O)N[C@H](CCCCN)C(=O)N[C@H](CCCCN)C(N)=O)CC2)cc1 [Compound 21, D-Phe-D-Tyr(Et)-D-Leu-D-Lys-4-aminopiperidine-4-carboxamide-D-Lys-D-Lys-D-Lys-D-Lys -NH2] (H-[Api]([dK-dL-X12])[dK][dK][dK][dK]-NH2; N-terminus assumed)	0.0501 nM	1212.0%
CCc1ccc(C[C@@H](NC(=O)[C@H](N)Cc2ccccc2)C(=O)N[C@H](CC(C)C)C(=O)N[C@H](CCCCN)C(=O)N2CCC(N)(C(=O)N[C@@H](CCCCN)C(N)=O)CC2)cc1 [Compound 131, D-Phe-D-Phe(4-Et)-D-Leu-D-Lys-4-aminopiperidine-4-carboxamide-Lys-NH2]	0.134 nM	454.5%
CCOc1ccc(C[C@@H](NC(=O)[C@H](N)Cc2ccccc2)C(=O)N[C@H](CC(C)C)C(=O)N[C@H](CCCCN)C(=O)N2CCC(N)(C(=O)NCC(=O)NCC(=O)N[C@@H](CCCCN)C(N)=O)CC2)cc1 [Compound 51, D-Phe-D-Tyr(Et)-D-Leu-D-Lys-4-aminopiperidine-4-carboxamide-Gly-Gly-Lys-NH2] (I: H-[Api]GGK-NH2 / II: H-[dF][dY](Et)[dL][dK]; amide I:1-II:C; N-terminus assumed)	0.0477 nM	1273.0%
CCOc1ccc(C[C@@H](NC(=O)[C@H](N)Cc2ccccc2)C(=O)N[C@H](CC(C)C)C(=O)N[C@H](CCCCN)C(=O)N2CCC(N)(C(=O)NCC(=O)NCC(=O)NCC(=O)N[C@@H](CCCCN)C(=O)O)CC2)cc1 [Compound 56, D-Phe-D-Tyr(Et)-D-Leu-D-Lys-4-aminopiperidine-4-carboxamide-Gly-Gly-Gly-Lys-OH] (H-[Api]([dK-dL-X12])GGGK-OH; N-terminus assumed)	0.0506 nM	1200.0%
CC(C)C[C@@H](NC(=O)[C@@H](Cc1ccc(Cl)cc1)NC(=O)[C@H](N)Cc1ccccc1)C(=O)N[C@H](CCCCN)C(=O)N1CCC(N)(C(=O)N[C@@H](CCCCN)C(=O)O)CC1 [Compound 112, D-Phe-D-Phe(4-C1)-D-Leu-D-Lys-4-aminopiperidine-4-carboxamide-Lys-OH]	0.0508 nM	1195.3%
CC(C)C[C@@H](NC(=O)[C@@H](Cc1ccc(I)cc1)NC(=O)[C@H](N)Cc1ccccc1)C(=O)N[C@H](CCCCN)C(=O)N1CCC(N)(C(=O)N[C@@H](CCCCN)C(=O)O)CC1 [Compound 124, D-Phe-D-Phe(4-I)-D-Leu-D-Lys-4-aminopiperidine-4-carboxamide-Lys-OH]	0.0558 nM	1088.2%
CC(C)C[C@@H](NC(=O)[C@@H](Cc1ccc(Cl)cc1)NC(=O)[C@H](N)Cc1ccccc1)C(=O)N[C@H](CCCCN)C(=O)N1CCC(N)(C(=O)N[C@@H](CCCCN)C(N)=O)CC1 [Compound 111, D-Phe-D-Phe(4-C1)-D-Leu-D-Lys-4-aminopiperidine-4-carboxamide-Lys-NH2]	0.0521 nM	1165.5%
CC(C)C[C@@H](NC(=O)[C@@H](Cc1ccc(F)cc1)NC(=O)[C@H](N)Cc1ccccc1)C(=O)N[C@H](CCCCN)C(=O)N1CCC(N)(C(=O)O)CC1 [Compound 104, D-Phe-D-Phe(4-F)-D-Leu-D-Lys-4-aminopiperidine-4-carboxamide-OH]	0.215 nM	281.9%
CC(C)C[C@@H](NC(=O)[C@@H](Cc1ccc(OC(C)C)cc1)NC(=O)[C@H](N)Cc1ccccc1)C(=O)N[C@H](CCCCN)C(=O)N1CCC(N)(C(=O)N[C@H](CCCCN)C(=O)O)CC1 [Compound 102, D-Phe-D-Tyr(Ipr)-D-Leu-D-Lys-4-aminopiperidine-4-carboxamide-D-Lys-OH] (H-[dF][dY](iPr)[dL][dK]-X10; N-terminus assumed)	0.073 nM	831.8%
CCOc1ccc(C[C@@H](NC(=O)[C@H](N)Cc2ccccc2)C(=O)N[C@H](CC(C)C)C(=O)N[C@H](CCCCN)C(=O)N2CCC(N)(C(N)=O)CC2)cc1 [Compound 1, D-Phe-D-Tyr(Et)-D-Leu-D-Lys-4-aminopiperidine-4-carboxylicacid-NH2] (H-[dF][dY](Et)[dL][dK]-{Piperidinyl(4-NH2,4-CONH2)}; N-terminus assumed)	0.116 nM	524.8%
CC(C)C[C@@H](NC(=O)[C@@H](Cc1ccc(F)cc1)NC(=O)[C@H](N)Cc1ccccc1)C(=O)N[C@H](CCCCN)C(=O)N1CCC(N)(C(=O)N[C@@H](CCCCN)C(N)=O)CC1 [Compound 105, D-Phe-D-Phe(4-F)-D-Leu-D-Lys-4-aminopiperidine-4-carboxamide-Lys-NH2]	0.0796 nM	762.8%
CCOc1ccc(C[C@@H](NC(=O)[C@H](N)Cc2ccccc2)C(=O)N[C@H](CC(C)C)C(=O)N[C@H](CCCCN)C(=O)N2CCC(N)(C(=O)N[C@@H](CCCCN)C(=O)N[C@@H](CCCCN)C(=O)N[C@@H](CCCCN)C(=O)N[C@@H](CCCCN)C(=O)N[C@@H](CCCCN)C(=O)N[C@@H](CCCCN)C(=O)O)CC2)cc1 [Compound 14, D-Phe-D-Tyr(Et)-D-Leu-D-Lys-4-aminopiperidine-4-carboxamide-Lys-Lys-Lys-Lys-Lys-Lys-OH] (H-[Api]([dK-dL-X12])KKKKKK-OH; N-terminus assumed)	0.0655 nM	927.0%
